Experimental data: BindingDB's records for PubMed 35660250 (COMSATS University Islamabad, 2022)
pEC50: −log10 of the molar value.

Assays:
[1] = Antagonist activity against human P2X4R stably transfected in human 1321N1 cells assessed as ATP EC50 at 0.1 uM incubated for 30 mins by Fura-2 AM staining based calcium influx assay
[2] = Antagonist activity against human P2X4R stably transfected in human 1321N1 cells assessed as ATP EC50 at 0.2 uM incubated for 30 mins by Fura-2 AM staining based calcium influx assay
[3] = Antagonist activity against human P2X4R stably transfected in human 1321N1 cells assessed as ATP EC50 at 0.05 uM incubated for 30 mins by Fura-2 AM staining based calcium influx assay
[4] = Antagonist activity against human P2X7R stably transfected in human 1321N1 cells assessed as BzATP EC50 at 0.1 uM incubated for 30 mins by Fura-2 AM staining based calcium influx assay
[5] = Antagonist activity against human P2X7R stably transfected in human 1321N1 cells assessed as BzATP EC50 at 0.2 uM incubated for 30 mins by Fura-2 AM staining based calcium influx assay
[6] = Antagonist activity against human P2X7R stably transfected in human 1321N1 cells assessed as BzATP EC50 at 0.05 uM incubated for 30 mins by Fura-2 AM staining based calcium influx assay

Compound | pEC50 [1] | pEC50 [2] | pEC50 [3] | pEC50 [4] | pEC50 [5] | pEC50 [6]
O=C(NC(=S)Nc1c(Br)ccc(C(F)(F)F)c1Br)c1ccc2c(c1)OCO2 | 5.00 | 4.97 | 4.97 |  |  | 
O=C(NC(=S)Nc1cccc2cccnc12)c1ccc2c(c1)OCO2 |  |  |  | 5.03 | 5.04 | 5.08
